Experimental data taken from patent publication US20020016358A1, “Cosmetic composition” (NOF CORPORATION, priority 2000, published 2002).

Legend:
[1] = test system: human melanoma cell (HM3KO); test: Suppression of melanin formation in human melanoma cell (HM3KO); assay type: cell-based; conditions: sample 10 μM in medium, cultivation 6 days, absorbance 410 nm of cell lysate, no addition = 100%
Protocol: (Confirmation of Whitening Effect-1: Suppression of Melanin Formation) Using the obtained compounds of formulae (II) to (V), the effect of suppressing melanin production of human melanoma cell (HM3KO) was examined in vitro. More specifically, HM3KO was cultured to about 5×10^5 by a conventional method, collected by centrifugation to obtain pellets, and inoculated the pellet to a culture dish of 10 cm diameter containing an Eagle's medium supplemented with 10% fetal bovine serum and cultured at 37° C. for 24 hours. Thereafter, each polymethoxyflavone of formulae (II) to (V) was added, or kojic acid or arbutin for comparison was added thereto so that the final addition concentration was 10 μM, followed by cultivation for 6 days. After the cultivation, cells were collected by centrifugation, and 1 ml of 2N sodium hydroxide aqueous solution was added thereto to obtain cell lysate. The absorbance in a wavelength of 410 nm of the cell lysate was measured with a spectrophotometer. Here, the absorbance of the cell lysate to which a sample is not added is defined as 100% of the melanin production ratio, and the melanin production ratios are shown as relative values, measuring the absorbance of each cell lysate.

[2] = test system: UV-induced pigmentation; test: Suppression of UV-induced pigmentation in brown guinea pigs; assay type: in vivo; conditions: 40 μl twice a day, after UV 0.5 J/cm2; for Pigmentation degree ΔL, After 40 days: no addition −5.2; for Pigmentation degree ΔL, After 20 days: no addition −7.8
Protocol: (Confirmation of Whitening Effect-2: Suppression of UV-induced Pigmentation)
Using brown guinea pigs, the suppression of UV-induced pigmentation was examined in vivo. More specifically, the backs of the brown guinea pigs were shaved and covered with an ultraviolet shielding plate provided with 6 rectangular holes of 2×2 cm, followed by irradiation of UV (0.5 J/cm^2) to induce pigmentation. Thereafter, 40 μl of 70% (W/W) ethanol aqueous solution containing each of polymethoxyflavone (nobiletin) of formula (III) or polymethoxyflavone (tangeretin) of formula (IV) in a concentration shown in Table 2 were applied twice a day. Then, the degrees of pigmentation before and after the application were measured.
In Table 2, the pigmentation degree ΔL was obtained by measuring a L value before UV irradiation, which is defined as 0, with a spectrophotometric calorimeter, and obtaining the difference between the L values before and after UV irradiation. A lower value ΔL corresponds to a higher pigmentation degree.

[3] = sample concentration 0.4% in 70% ethanol
[4] = sample concentration 4% in 70% ethanol, lower ΔL = more pigmentation
[5] = sample concentration 4% in 70% ethanol

Structure (SMILES) | Melanin production ratio (% of control) [1] | Pigmentation degree ΔL, After 40 days [2, 3] | Pigmentation degree ΔL, After 20 days [2, 3] | Pigmentation degree ΔL, After 20 days [2, 4] | Pigmentation degree ΔL, After 40 days [2, 5]
O=c1cc(CO)occ1O [Kojic acid, reference compound] | 96 % of control |  |  |  | 
COc1ccc(-c2cc(=O)c3c(OC)cc(OC)c(OC)c3o2)cc1OC [formula (V), 5,7,8,3′,4′-pentamethoxyflavone] | 60 % of control |  |  |  | 
OC[C@H]1O[C@@H](Oc2ccc(O)cc2)[C@H](O)[C@@H](O)[C@@H]1O [Arbutin, reference compound] | 97 % of control |  |  |  | 
COc1ccc(-c2cc(=O)c3c(OC)c(OC)c(OC)c(OC)c3o2)cc1 [formula (IV), 5,6,7,8,4′-pentamethoxyflavone] | 55 % of control | −3.5 | −6.1 | −5.6 | −3.3
COc1ccc(-c2cc(=O)c3c(OC)c(OC)c(OC)c(OC)c3o2)cc1OC [formula (III), 5,6,7,8,3′,4′-hexamethoxyflavone] | 35 % of control | −3.2 | −5.5 | −5.1 | −1.9
COc1ccc(-c2oc3c(OC)c(OC)c(OC)c(OC)c3c(=O)c2OC)cc1OC [formula (II), 3,5,6,7,8,3′,4′-heptamethoxyflavone] | 65 % of control |  |  |  | 
